# Measurements published in US11147801B2, “Methods of use for trisubstituted benzotriazole derivatives as dihydroorotate oxygenase inhibitors” (Aurigene Discovery Technologies Limited, priority 2017, dated 2021).
# pIC50: −log10 of the molar value.
# How the values were obtained:
# [1] = test system: Ramos cells; assay: Ramos proliferation assay (XTT); assay type: cell-based; conditions: Homo sapiens, 72 hrs; for inhibition at 30 µM: read-out: Maximum % Inhibition at 30 μM; for pIC50: XTT
# Excerpt: Cell proliferation assay is a sensitive method for quantification of viable cells in cytotoxicity or proliferation assay. The XTT (2,3-bis[2-Methoxy-4-nitro-5-sulfophenyl]-2 H-tetrazolium-5-carboxyanilide inner salt) system is a means of measuring the activity of living cells via mitochondrial dehydrogenases. Mitochondrial dehydrogenases of viable cells cleave the tetrazolium ring of XTT, yielding orange formazon crystals which are soluble in aqueous solutions. The XTT solution is potentiated by the addition of an electron coupling agent, phenazine methosulphate (PMS) to the reaction. The resulting orange colour is spectrophotometrically measured at 450 nm. An increase or decrease in cell numbers results in a concomitant change in the amount of formazon formed, indicating the degree of cytotoxicity caused by the test material.
# Dissolve 17.7 g IMDM (Iscove's Modified Dulbecco's Medium) powder, 1.5 g sodium bicarbonate pH 7.2-7.4 in 1 L MiliQ water, add 1% Pencilin/ Streptomycin and 10% FBS.
# Dissolve 10.6 g Ham's F12 powder, 1.5 g sodium bicarbonate pH 7.2-7.4 in 1 L MiliQ water, add 1% Penicillin/Streptomycin. DMSO used as vehicle.
# Ramos cells were re-suspended to a density of 1×10^5 cells/ ml in complete IMDM medium. 95 μL of this cell suspension was added to the 96-well plate to seed ˜10,000 cells per well. The plates were incubated at 37° C. under a humidified atmosphere of 5% CO2 for ˜1 hour before compound addition.
# Test compounds (Refer to Table 1) were dissolved in 100% DMSO to generate a 2/6/10/20 mM stock solution. A 200× concentration of the required final concentrations was prepared in DMSO. 10 μL of each concentration (200×) was then diluted in 90 μL of serum-free Ham's F12 medium to get an intermediate concentration of 20× in medium. The DMSO concentration in this step is 10% (Intermediate dilution). 5 μL of each intermediate dilution was then added in triplicates in the previously seeded 96-well plate. The final DMSO concentration was 0.5% in the experimental wells. Cells treated with 0.5% DMSO served as positive control. 100 μL, of complete IMDM medium served as media blank for data analysis. 200 μL, of 1× PBS was added in all corner wells of the assay plate. Plates were then incubated for 72 hrs in an incubator with 5% CO2 at 37° C.
# On termination day, 100 μl of XTT solution (1 mg/ml XTT supplemented with 25 μM PMS in Ham's F12 medium) was added to each well. Plates were incubated for 2 hrs. The amount of formazon produced was determined by reading the absorbance of the plate using VICTOR X5 multilabel plate reader at wavelength of 450 nm. The IC50 values were determined as concentrations that reduced cell viability by 50% and the curve was plotted with GraphPad Prism 6.0.
# Percent (%) Inhibition was calculated by normalizing DMSO control values to 100% using the formula: % Inhibition=[…](Abs450test compound−blank)/(Abs450positive control−blank)*100
# Test compound contains cells, test compound, IMDM medium and 0.5% DMSO
# Positive control contains cells, IMDM medium and 0.5% DMSO
# Blank contains IMDM medium
# [2] = biological target: DHODH (Homo sapiens (Human), UniProt Q02127); assay: DHODH activity assay (coupled enzyme assay, DCIP reduction); assay type: biochemical; conditions: read-out: DHODH inhibition activity, IC50 group
# Procedure: The DHODH activity assay is a coupled enzyme assay in which oxidation of DHO and subsequent reduction of ubiquinone are stoichiometrically equivalent to the reduction of DCIP ([…]). The reduction of DCIP is accompanied by a loss of absorbance at 610 nm.
# Buffer Preparation: 50 mM tris HCl, 150 mM KCl, and pH 8.0, 0.8% triton.
# L-Dihydroorotic acid stock solution of 20 mM in buffer.
# 2, 6-Dichloroindophenol Sodium salt hydrate stock solution of 20 mM in buffer.
# Decylubiquinone stock solution of 20 mM in buffer.
# 5 μL of Dimethyl sulfoxide or a compound of formula (I) in DMSO solution was added to the wells of a 96 well plate. Compounds of formula (I) were measured at 10 μM.
# Protein along with buffer was added, so that the total volume including the DMSO was 87 μL. Compound and protein were incubated for half an hour at room temperature after mixing. 5 μL of 20 mM solution of L-Dihydroorotic acid, 5 μL of 2 mM solution of Decylubiquinone and 3 μL of 2 mM solution of 2, 6-Dichloroindophenol sodium salt hydrate were added to the above solution (total assay volume 100 μL). The mixture was stirred for 2 min and absorbance was recorded at every 10 min at 610 nanometers.
# Percent inhibition is calculated as follows: […]
# A 2 mM DMSO stock solution of the selected trisubstituted benzoimidazole and benzotriazole derivatives of formula (I) of the present invention to be examined was prepared. Subsequent ⅓rd dilutions were made.
# 5 μL of each stock of compound of formula (I) was used for each 100 μL assay. Therefore, 5 μL of the 2 mM stock provided 100 μL of 100 μM solution of compound of formula (I), when made up with buffer, protein and substrate. See also: Ulrich et al. (2001) Eur. J. Biochem.268, 1861-1868.
# DHODH, sequence (Q02127 whole entry): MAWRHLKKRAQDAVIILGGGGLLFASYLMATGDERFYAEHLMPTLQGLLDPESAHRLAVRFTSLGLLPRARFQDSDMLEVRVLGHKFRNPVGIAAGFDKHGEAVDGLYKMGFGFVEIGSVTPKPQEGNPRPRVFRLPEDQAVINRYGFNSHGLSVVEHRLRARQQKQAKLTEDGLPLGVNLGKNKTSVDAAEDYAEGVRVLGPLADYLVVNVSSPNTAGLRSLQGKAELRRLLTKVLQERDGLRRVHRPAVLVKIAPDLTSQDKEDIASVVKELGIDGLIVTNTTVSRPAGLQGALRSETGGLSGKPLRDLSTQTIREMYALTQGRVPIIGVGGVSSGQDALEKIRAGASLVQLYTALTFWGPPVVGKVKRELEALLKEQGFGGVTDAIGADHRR
SMILES,pIC50 [1],pIC50 [2],inhibition at 30 µM [1],"inhibition at 10 µM ([1]; 10 μM, read-out: Maximum % Inhibition (at 10 μM))"
"Cc1ccccc1-c1ccc(-c2cc(C(N)=O)c3c(c2)nnn3C)cc1 [Compound 2, 1-methyl-5-(2′-methyl-[1,1′-biphenyl]-4-yl)-1H-benzo[d] [1,2,3]triazole-7-carboxamide]",5.96,> 7.00,95%,
"Cn1nnc2cc(-c3ccc(-c4ccccc4)cc3)cc(C(=O)O)c21 [Compound 3, 5-([1,1′-biphenyl]-4-yl)-1-methyl-1H-benzo[d][1,2,3]triazole-7-carboxylic acid]",6.28,6.00 to 7.00,113%,
"Cn1nc2cc(-c3ccc(-c4ccccc4)cc3)cc(C(=O)O)c2n1 [Compound 4, 6-([1,1′-biphenyl]-4-yl)-2-methyl-2H-benzo[d][1,2,3]triazole-4-carboxylic acid]",5.84,6.00 to 7.00,107%,
"Cc1ccccc1-c1ccc(-c2cc(C(=O)O)c3nn(C)nc3c2)cc1 [Compound 8, 2-methyl-6-(2′-methyl-[1,1′-biphenyl]-4-yl)-2H-benzo[d][1,2,3]triazole-4-carboxylic acid]",6.81,> 7.00,103%,
"Cc1ccccc1-c1ccc(-c2cc(C(N)=O)c3nn(C)nc3c2)cc1 [Compound 11, 2-methyl-6-(2′-methyl-[1,1′-biphenyl]-4-yl)-2H-benzo[d][1,2,3]triazole-4-carboxamide]",,6.00 to 7.00,,67%
"Cc1ccc(C)n1-c1ccc(-c2cc(C(=O)O)c3c(c2)nnn3C)cc1 [Compound 12, 5-(4-(2,5-dimethyl-1H-pyrrol-1-yl)phenyl)-1-methyl-1H-benzo[d][1,2,3]triazole-7-carboxylic acid]",6.44,> 7.00,103%,
"Cc1ccc(C)n1-c1ccc(-c2cc(C(=O)O)c3nn(C)nc3c2)cc1 [Compound 13, 6-(4-(2,5-dimethyl-1H-pyrrol-1-yl)phenyl)-2-methyl-2H-benzo[d][1,2,3]triazole-4-carboxylic acid]",5.41,6.00 to 7.00,100%,
"Cn1nnc2cc(-c3ccc(-c4cccc(CN5CCOCC5)c4)cc3)cc(C(=O)O)c21 [Compound 15, 1-methyl-5-(3′-(morpholinomethyl)-[1,1′-biphenyl]-4-yl)-1H-benzo[d][1,2,3]triazole-7-carboxylic acid]",5.08,< 6.00,96%,
"Cn1nc2cc(-c3ccc(-c4cccc(CN5CCOCC5)c4)cc3)cc(C(=O)O)c2n1 [Compound 16, 2-methyl-6-(3′-(morpholinomethyl)-[1,1′-biphenyl]-4-yl)-2H-benzo[d][1,2,3]triazole-4-carboxylic acid]",5.21,< 6.00,124%,
"Cn1nnc2cc(-c3ccc(-c4cccc(CN5CCCC5)c4)cc3)cc(C(=O)O)c21 [Compound 17, 1-methyl-5-(3′-(pyrrolidin-1-ylmethyl)-[1,1′-biphenyl]-4-yl)-1H-benzo[d][1,2,3]triazole-7-carboxylic acid]",,< 6.00,50%,
"Cn1nnc2cc(-c3c(F)c(F)c(-c4ccccc4)c(F)c3F)cc(C(=O)O)c21 [Compound 19, 1-methyl-5-(2,3,5,6-tetrafluoro-[1,1′-biphenyl]-4-yl)-1H-benzo[d][1,2,3]triazole-7-carboxylic acid]",7.15,> 7.00,106%,

# Further lines, with some results ahead:
pIC50 [1],pIC50 [2],SMILES,inhibition at 30 µM [1],"inhibition at 10 µM ([1]; 10 μM, read-out: Maximum % Inhibition (at 10 μM))"
5.43,< 6.00,"Cn1nnc2c(C(=O)O)cc(-c3ccc(-c4cccc(CN5CCCCC5)c4)cc3)cc21 [Compound 20, 1-methyl-6-(3′-(piperidin-1-ylmethyl)-[1,1′-biphenyl]-4-yl)-1H-benzo[d][1,2,3]triazole-4-carboxylic acid]",129%,
6.40,> 7.00,"Cn1nc2cc(-c3c(F)c(F)c(-c4ccccc4)c(F)c3F)cc(C(=O)O)c2n1 [Compound 24, 2-methyl-6-(2,3,5,6-tetrafluoro-[1,1′-biphenyl]-4-yl)-2H-benzo[d][1,2,3]triazole-4-carboxylic acid]",104%,
5.55,6.00 to 7.00,"Cn1nnc2cc(-c3ccc(-c4ccccc4CN4CCOCC4)cc3)cc(C(=O)O)c21 [Compound 25, 1-methyl-5-(2′-(morpholinomethyl)-[1,1′-biphenyl]-4-yl)-1H-benzo[d][1,2,3]triazole-7-carboxylic acid]",120%,
5.37,< 6.00,"Cn1nc2cc(-c3ccc(-c4ccccc4CN4CCOCC4)cc3)cc(C(=O)O)c2n1 [Compound 26, 2-methyl-6-(2′-(morpholinomethyl)-[1,1′-biphenyl]-4-yl)-2H-benzo[d][1,2,3]triazole-4-carboxylic acid]",133%,
5.52,< 6.00,"Cn1nnc2cc(-c3ccc(-c4ccccc4CN4CCCC4)cc3)cc(C(=O)O)c21 [Compound 27, 1-methyl-5-(2′-(pyrrolidin-1-ylmethyl)-[1,1′-biphenyl]-4-yl)-1H-benzo[d][1,2,3]triazole-7-carboxylic acid]",89%,
,6.00 to 7.00,"Cn1nnc2cc(-c3c(F)c(F)c(-c4cccc(CN5CCOCC5)c4)c(F)c3F)cc(C(=O)O)c21 [Compound 33, 1-methyl-5-(2,3,5,6-tetrafluoro-3′-(morpholinomethyl)-[1,1′-biphenyl]-4-yl)-1H-benzo[d][1,2,3]triazole-7-carboxylic acid]",,
,< 6.00,"CN1CCN(Cc2cccc(-c3c(F)c(F)c(-c4cc(C(=O)O)c5c(c4)nnn5C)c(F)c3F)c2)CC1 [Compound 35, 1-methyl-5-(2,3,5,6-tetrafluoro-3′-((4-methylpiperazin-1-yl)methyl)-[1,1′-biphenyl]-4-yl)-1H-benzo[d][1,2,3]triazole-7-carboxylic acid]",,
,6.00 to 7.00,"CC(C)NCc1cccc(-c2c(F)c(F)c(-c3cc(C(=O)O)c4c(c3)nnn4C)c(F)c2F)c1 [Compound 36, 1-methyl-5-(2,3,5,6-tetrafluoro-3′-((isopropylamino)methyl)-[1,1′-biphenyl]-4-yl)-1H-benzo[d][1,2,3]triazole-7-carboxylic acid]",,
,< 6.00,"CNCc1cccc(-c2c(F)c(F)c(-c3cc(C(=O)O)c4c(c3)nnn4C)c(F)c2F)c1 [Compound 37, 1-methyl-5-(2,3,5,6-tetrafluoro-3′-((methylamino)methyl)-[1,1′-biphenyl]-4-yl)-1H-benzo[d][1,2,3]triazole-7-carboxylic acid]",,
